Assay [1] deals with Nav channels. Nature of the assay: CBD inhibition of Nav channels. The format is cell-based. To be noted: Table 1, from literature CBD values.
The subject of assay [2] is Nav channels. To be noted: ref Ghovanloo, Shuart, et al. (2018), cited from earlier work.
Assay [3] concerns the target T1, human Nav1.7 channels (Homo sapiens, UniProt Q15858). Kind of assay: State-dependent inhibition of sodium currents, automated patch-clamp. The format is cell-based.
The subject of assay [4] is TTX-resistant Nav current in rat DRG neurons. The format is cell-based.
Assay [5] deals with T1, human Nav1.7 channels. Kind of assay: Activation / peak conductance protocol, automated patch-clamp. The format is cell-based. For orientation: In patch-clamp work, channel activity is measured electrically.
The target in assay [6] is T1, human Nav1.7 channels. Nature of the assay: Steady-state inactivation. It counts as cell-based.
Assay [7] relates to voltage-gated sodium (Nav) channels in rat CA1 hippocampal neurons. To be noted: cited from earlier work.
Assay [8] relates to TTX-sensitive Nav channels. To be noted: read-out: IC50 of TTX-sensitive channels; cited from earlier work.

The values that follow come from PMC13012276 (British journal of pharmacology, 2022).

Several values for one entry are separate records, joined by “and”; a condition that tells them apart may be missing. Equal entries are not always repeated. Where two headings read alike, the source gives them in different places. Marks after values point to notes of the source that are not given here.

T1 sequence (Q15858 whole entry): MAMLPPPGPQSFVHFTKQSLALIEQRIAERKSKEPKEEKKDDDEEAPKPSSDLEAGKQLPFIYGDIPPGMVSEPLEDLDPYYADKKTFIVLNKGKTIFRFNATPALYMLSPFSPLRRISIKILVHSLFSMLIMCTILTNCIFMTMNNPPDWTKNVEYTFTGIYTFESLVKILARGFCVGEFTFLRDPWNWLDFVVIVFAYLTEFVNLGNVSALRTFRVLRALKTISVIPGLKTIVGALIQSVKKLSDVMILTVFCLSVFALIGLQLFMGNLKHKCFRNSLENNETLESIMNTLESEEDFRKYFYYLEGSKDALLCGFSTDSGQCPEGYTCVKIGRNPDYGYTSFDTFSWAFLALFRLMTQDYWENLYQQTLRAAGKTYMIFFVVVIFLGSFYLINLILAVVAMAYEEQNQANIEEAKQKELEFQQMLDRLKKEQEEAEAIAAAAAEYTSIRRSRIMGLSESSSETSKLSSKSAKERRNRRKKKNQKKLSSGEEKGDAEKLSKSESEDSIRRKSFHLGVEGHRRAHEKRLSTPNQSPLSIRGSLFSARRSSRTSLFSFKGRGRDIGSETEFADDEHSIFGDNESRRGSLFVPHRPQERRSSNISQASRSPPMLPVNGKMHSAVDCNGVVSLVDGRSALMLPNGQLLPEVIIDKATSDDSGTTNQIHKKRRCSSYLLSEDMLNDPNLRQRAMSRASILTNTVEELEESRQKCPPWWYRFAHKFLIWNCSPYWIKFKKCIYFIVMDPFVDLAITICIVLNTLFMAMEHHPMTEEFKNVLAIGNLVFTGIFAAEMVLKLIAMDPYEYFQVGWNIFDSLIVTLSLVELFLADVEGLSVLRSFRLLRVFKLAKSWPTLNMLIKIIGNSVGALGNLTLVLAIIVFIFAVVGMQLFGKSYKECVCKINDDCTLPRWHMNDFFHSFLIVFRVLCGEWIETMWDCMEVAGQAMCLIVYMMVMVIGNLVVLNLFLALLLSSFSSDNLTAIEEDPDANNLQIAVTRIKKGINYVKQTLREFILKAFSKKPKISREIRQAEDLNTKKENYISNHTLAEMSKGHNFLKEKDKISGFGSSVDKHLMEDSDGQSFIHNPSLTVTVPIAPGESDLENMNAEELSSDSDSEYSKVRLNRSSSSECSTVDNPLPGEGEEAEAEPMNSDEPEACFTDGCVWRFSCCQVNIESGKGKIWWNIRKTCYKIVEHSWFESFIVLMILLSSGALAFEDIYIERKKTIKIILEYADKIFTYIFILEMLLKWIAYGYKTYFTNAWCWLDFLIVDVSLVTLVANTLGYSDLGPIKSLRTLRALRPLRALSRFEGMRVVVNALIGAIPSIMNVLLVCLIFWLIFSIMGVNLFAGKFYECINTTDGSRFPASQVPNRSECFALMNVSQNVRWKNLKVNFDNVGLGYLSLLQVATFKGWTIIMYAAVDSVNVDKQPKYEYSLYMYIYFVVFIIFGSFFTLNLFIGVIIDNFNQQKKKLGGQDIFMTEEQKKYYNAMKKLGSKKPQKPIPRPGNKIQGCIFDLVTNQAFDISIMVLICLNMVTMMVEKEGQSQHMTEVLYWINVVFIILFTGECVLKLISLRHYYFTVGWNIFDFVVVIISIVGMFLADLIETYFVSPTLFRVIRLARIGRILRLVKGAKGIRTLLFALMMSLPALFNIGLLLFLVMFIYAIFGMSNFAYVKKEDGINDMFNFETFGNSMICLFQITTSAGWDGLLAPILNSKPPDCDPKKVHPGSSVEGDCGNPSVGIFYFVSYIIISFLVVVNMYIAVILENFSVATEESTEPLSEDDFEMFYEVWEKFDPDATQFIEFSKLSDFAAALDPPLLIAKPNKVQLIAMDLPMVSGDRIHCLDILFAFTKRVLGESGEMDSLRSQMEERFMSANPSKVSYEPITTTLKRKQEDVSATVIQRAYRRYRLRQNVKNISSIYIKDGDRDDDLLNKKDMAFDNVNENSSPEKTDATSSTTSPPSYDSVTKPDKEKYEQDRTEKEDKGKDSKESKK
T1 sequence (Q07699 19-218 partner): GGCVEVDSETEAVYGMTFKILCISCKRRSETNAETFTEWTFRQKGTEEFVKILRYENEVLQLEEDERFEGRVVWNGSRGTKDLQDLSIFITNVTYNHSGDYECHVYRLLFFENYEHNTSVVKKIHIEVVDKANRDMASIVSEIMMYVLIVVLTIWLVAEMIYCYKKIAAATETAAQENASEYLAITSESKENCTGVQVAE

By IC50 is commonly meant the concentration that inhibits the measured activity by half. Turning to `C=C(C)[C@@H]1CCC(C)=C[C@H]1c1c(O)cc(CCCCC)cc1O` [CBD, cannabidiol], in the assay with Nav channels [1], the “Concentration/fold state dependence (ratio)” value came out at 1.1. Moreover, the State dependence is listed as ~10^a in the assay on Nav channels [2] (Table 1) and ~ 10 fold with Nav channels [2]. Further, the IC50 in the assay on Nav channels [2] (read-out: IC50 on Nav channels, Table 1) was 1 to 12 µM.

The term Hill slope denotes the slope factor of the fitted curve. A word on the Ki: it is the equilibrium dissociation constant of an inhibitor or competing ligand from its target. A low value points to tighter binding. One may read the inhibition as the change of the read-out against control, counted positive when it falls. Take `CCCCCc1cc(O)c(C/C=C(\C)CCC=C(C)C)c(O)c1` [CBG, cannabigerol]: on human Nav1.7 channels [3], the “Concentration/fold state dependence (ratio)” value came to 2; the “Fold less potent than CBD in inhibiting Nav channels” value was “about 2 fold”; the Hill slope was 1.2 ± 0.3 and 2.3 ± 0.5 and 1.6 ± 0.4; the “Hill slopes (range across holding potentials)” value is given as 1.2–2.3. Further, on human Nav1.7 channels [3], the Ki is 2 to 20 µM; the “Nav channels prevented from opening” value is recorded as ~ 30%; the State dependence was around 10; the “State dependence (inactivated vs resting state potency)” value is ~ 10 fold and ~ 11 fold. In addition, the “average Hill-slope” value at human Nav1.7 channels [3] is ~ 2. For the same compound, the IC50 against human Nav1.7 channels [3] (IC50 (range across holding potentials), holding potentials −110 to −90 mV) is 4.6 to 18.8 µM. Also, it took 4.6 ± 1.1 µM to reach half-maximal inhibition at human Nav1.7 channels [3] (IC50, holding potential −90 mV, pulse 180 (3 min), mean ± SEM) (IC50). For the same compound, 9.3 ± 1 µM corresponded to half-maximal inhibition against human Nav1.7 channels [3] (IC50, holding potential −100 mV, pulse 180 (3 min), mean ± SEM) (IC50). At human Nav1.7 channels [3] (IC50, holding potential −110 mV, pulse 180 (3 min), mean ± SEM), this compound came in with an IC50 of 18.8 ± 2.9 µM. For the same compound, the “Inhibition of TTX-resistant current” value in assay [4] is reported as ~ 50%. Moreover, on human Nav1.7 channels [5], the 50% inhibitory concentration (IC50) was around 3.5 µM, the “Reduction in sodium current density” value is ~ 90%, the V1/2 of activation is given as −46.4 ± 5.6 mV and the “Vehicle Gmax left” value is listed as ~ 10%. The compound further had a slope of activation at human Nav1.7 channels [5] of 5.2 ± 2.2. At human Nav1.7 channels [6], the “Hyperpolarization of voltage dependence of SSI” value is ~ 12 mV, the “Percentage shift of inactivation V1/2 relative to vehicle” value is “about 25%” and the “Rate time constant of open-state inactivation vs vehicle” value is given as “did not differ significantly”. Besides, the IC50 on human Nav1.7 channels [6] (IC50 for V1/2 (inactivation shift), Hill fit of normalized data, estimated) was around 13.2 µM. Moreover, the inhibition at 15 µM at human Nav1.7 channels [6] (read-out: Inhibition of current at the test pulse) is around 90%. Further, in assay [7], the “Effect on Nav current density and action potential frequency” value is “decreases current density”.

On to `NC1=N[C@H](O)[C@H]2[C@H]3O[C@]4(O)O[C@@H]([C@@H](O)[C@@]2(N1)[C@@H]4O)[C@]3(O)CO` [TTX, tetrodotoxin], for which, in assay [8], the IC50 is 0.01 to 0.03 µM.
